Each compound was assayed against HIV-1 protease (Human immunodeficiency virus type 1 group M subtype B, UniProt P04585) (assay: Inhibition of microbial expressed viral protease (HIV-1 protease), method of Toth and Marshall).
Format: biochemical
Description: Biological Assay for Inhibition of Microbial Expressed Viral Protease
The inhibition constants against HIV-1 protease were measured using the method described by M. V. Toth and G. R. Marshall, Int. J. Peptide protein Res., 1990, 544. The method described M. W. Pennington et al., Peptides 1990, Gimet, E. and D. Andrew, Eds., Escom; Leiden, Netherlands (1990) may also be used. The potency is measured as IC50in μM. The person of skill would accept these tests as predictive of the compounds' utility in vivo to treat HIV infected patients.

Row | Compound | IC50
1 | CCc1ccc(NC(=O)N[C@@H](Cc2ccccc2)[C@H](O)CCc2ccccc2C(=O)NC(C)(C)C)cc1 [Example 000893] | 0.1 to 10 µM
2 | CC(C)(C)NC(=O)c1ccccc1CC[C@@H](O)[C@H](Cc1ccccc1)NC(=O)COc1ccc(F)c(F)c1F [Example 001227] | 0.1 to 10 µM
3 | COc1cccc(OC)c1OCC(=O)N[C@@H](Cc1ccccc1)[C@H](O)CCc1ccccc1C(=O)NC(C)(C)C [Example 001210] | 0.1 to 10 µM
4 | CCCCNC(=O)N[C@@H](Cc1ccccc1)[C@H](O)CCc1ccccc1C(=O)NC(C)(C)C [Example 000891] | 0.1 to 10 µM
5 | COc1cccc(F)c1OCC(=O)N[C@@H](Cc1ccccc1)[C@H](O)CCc1ccccc1C(=O)NC(C)(C)C [Example 001217] | 0.1 to 10 µM
6 | COc1cccc(OC)c1C(=O)N[C@@H](Cc1ccccc1)[C@H](O)CCc1ccccc1C(=O)NC(C)(C)C [Example 000966] | 0.1 to 10 µM
7 | CC(C)(C)NC(=O)c1ccccc1CC[C@@H](O)[C@H](Cc1ccccc1)NC(=O)CCC(=O)c1ccc(F)cc1 [Example 000973] | < 0.1 µM
8 | Cc1cccc(Cl)c1OCC(=O)N[C@@H](Cc1ccccc1)[C@H](O)CCc1ccccc1C(=O)NC(C)(C)C [Example 001215] | < 0.1 µM
9 | Cc1cc(Br)cc(Cl)c1OCC(=O)N[C@@H](Cc1ccccc1)[C@H](O)CCc1ccccc1C(=O)NC(C)(C)C [Example 001216] | 0.1 to 10 µM
10 | CC(C)(C)NC(=O)c1ccccc1CC[C@@H](O)[C@H](Cc1ccccc1)NC(=O)c1ccccc1C(F)(F)F [Example 001042] | 0.1 to 10 µM
11 | CC(C)(C)NC(=O)c1ccccc1CC[C@@H](O)[C@H](Cc1ccccc1)NC(=O)COC1CCCCC1 [Example 001228] | 0.1 to 10 µM
12 | CC(C)(C)NC(=O)c1ccccc1CC[C@@H](O)[C@H](Cc1ccccc1)NC(=O)NC1CCCCC1 [Example 000882] | > 10 µM
13 | CC(C)(C)NC(=O)c1ccccc1CC[C@@H](O)[C@H](Cc1ccccc1)NC(=O)COc1cccnc1Cl [Example 001268] | 0.1 to 10 µM
14 | Cc1ccc(C(=O)C=CC(=O)NC(Cc2ccccc2)C(O)CCc2ccccc2C(=O)NC(C)(C)C)cc1 (stereo not shown) [Example 000950] | > 10 µM
15 | CC(C)(C)NC(=O)c1ccccc1CC[C@@H](O)[C@H](Cc1ccccc1)NS(=O)(=O)c1ccc(C(F)(F)F)cc1 [Example 000877] | 0.1 to 10 µM
16 | Cc1cccc(OCC(=O)N[C@@H](Cc2ccccc2)[C@H](O)CCc2ccccc2C(=O)NC(C)(C)C)c1 [Example 001185] | 0.1 to 10 µM
17 | Cc1cccc(C)c1OCC(=O)N[C@@H](Cc1ccccc1)[C@H](O)CCc1cccc(F)c1C(=O)NC(C)(C)C [Example 001239] | < 0.1 µM
18 | CC(C)(C)NC(=O)c1ccccc1CC[C@@H](O)[C@H](Cc1ccccc1)NC(=O)COc1cc(F)cc(F)c1 [Example 001182] | > 10 µM
19 | COc1cccc(C)c1OCC(=O)N[C@@H](Cc1ccccc1)[C@H](O)CCc1ccccc1C(=O)NC(C)(C)C [Example 001213] | < 0.1 µM
20 | CC(Oc1ccccc1)C(=O)NC(Cc1ccccc1)C(O)CCc1ccccc1C(=O)NC(C)(C)C (stereo not shown) [Example 000243] | 0.1 to 10 µM
21 | CC(C)(C)NC(=O)c1ccccc1CC[C@@H](O)[C@H](Cc1ccccc1)NC(=O)c1ccc(N)cc1Cl [Example 000944] | > 10 µM
22 | CC(C)(C)NC(=O)c1ccccc1CC[C@@H](O)[C@H](Cc1ccccc1)NC(=O)CNc1ccccc1 [Example 001192] | 0.1 to 10 µM
23 | Cc1cc([N+](=O)[O-])cc(C)c1OCC(=O)N[C@@H](Cc1ccccc1)[C@H](O)CCc1ccccc1C(=O)NC(C)(C)C [Example 001211] | 0.1 to 10 µM
24 | CC(C)(C)NC(=O)c1ccccc1CC[C@@H](O)[C@H](Cc1ccccc1)NS(=O)(=O)c1cccc2cccnc12 [Example 00878] | 0.1 to 10 µM
25 | CC(C)(C)NC(=O)c1ccccc1CC[C@@H](O)[C@H](Cc1ccccc1)NC(=O)COc1c(Cl)cccc1Cl [Example 001203] | 0.1 to 10 µM
26 | CC(C)(C)NC(=O)c1ccccc1CC[C@@H](O)[C@H](Cc1ccccc1)NC(=O)COc1c(Cl)cc(Cl)cc1Cl [Example 001224] | < 0.1 µM

Row | Compound | IC50
27 | CC(C)(C)NC(=O)c1ccccc1CC[C@@H](O)[C@H](Cc1ccccc1)NC(=O)c1ccc(C(=O)c2ccccc2)cc1 [Example 001047] | 0.1 to 10 µM
28 | CC(C)(C)NC(=O)c1ccccc1CC[C@@H](O)[C@H](Cc1ccccc1)NC(=O)c1cc(C(F)(F)F)ccc1Cl [Example 001036] | > 10 µM
29 | CC(C)CCNC(=O)c1ccccc1CC[C@@H](O)[C@H](Cc1ccccc1)NC(=O)OC(C)(C)C [Example 000766] | 0.1 to 10 µM
30 | CC(C)(C)NC(=O)c1ccccc1CC[C@@H](O)[C@H](Cc1ccccc1)NC(=O)NC(=O)CCl [Example 000869] | > 10 µM
31 | CCC(C)(C)c1ccc(S(=O)(=O)N[C@@H](Cc2ccccc2)[C@H](O)CCc2ccccc2C(=O)NC(C)(C)C)cc1 [Example 000875] | 0.1 to 10 µM
32 | Cc1cccc(C)c1C(=O)N[C@@H](Cc1ccccc1)[C@H](O)CCc1ccccc1C(=O)NC(C)(C)C [Example 000951] | < 0.1 µM
33 | CC(C)NC(=O)N[C@@H](Cc1ccccc1)[C@H](O)CCc1ccccc1C(=O)NC(C)(C)C [Example 000892] | 0.1 to 10 µM
34 | CC(C)(C)NC(=O)c1ccccc1CC[C@@H](O)[C@H](Cc1ccccc1)NC(=O)c1cccc([N+](=O)[O-])c1Br [Example 000946] | > 10 µM
35 | Cc1ccc(CO)cc1C(=O)N[C@@H](Cc1ccccc1)[C@H](O)CCc1ccccc1C(=O)NC(C)(C)C [Example 000895] | < 0.1 µM
36 | Cc1cccc(C)c1OCC(=O)N[C@@H](Cc1ccccc1)[C@H](O)CCc1cccc(C)c1C(=O)NC(C)(C)C [Example 001249] | < 0.1 µM
37 | Cc1cccc(C)c1OCC(=O)N[C@@H](Cc1ccccc1)[C@H](O)CCc1ccccc1C(=O)NC(C)(C)C [Example 000987] | < 0.1 µM
38 | CCOC(=O)NC(Cc1ccccc1)C(O)C=Cc1ccccc1C(=O)NC(C)(C)C (stereo not shown) [Example 000207] | 0.1 to 10 µM
39 | CCc1ccc(S(=O)(=O)N[C@@H](Cc2ccccc2)[C@H](O)CCc2ccccc2C(=O)NC(C)(C)C)cc1 [Example 000874] | 0.1 to 10 µM
40 | Cc1cc(C(=O)O)ccc1OCC(=O)N[C@@H](Cc1ccccc1)[C@H](O)CCc1ccccc1C(=O)NC(C)(C)C [Example 001279] | 0.1 to 10 µM
41 | CC(C)(C)NC(=O)c1ccccc1CC[C@@H](O)[C@H](Cc1ccccc1)NC(=O)c1ccc(Br)c(C(=O)O)c1 [Example 001035] | 0.1 to 10 µM
42 | CC(C)(C)NC(=O)c1ccccc1CC[C@@H](O)[C@H](Cc1ccccc1)NC(=O)c1cc(F)cc(F)c1 [Example 000948] | > 10 µM
43 | CC(C)(C)NC(=O)c1ccccc1CC[C@@H](O)[C@H](Cc1ccccc1)NC(=O)c1cc(=O)c2ccccc2o1 [Example 000974] | > 10 µM
44 | C=CCc1cccc(C)c1OCC(=O)N[C@@H](Cc1ccccc1)[C@H](O)CCc1ccccc1C(=O)NC(C)(C)C [Example 001206] | 0.1 to 10 µM
45 | Cc1cc(Br)c(OCC(=O)N[C@@H](Cc2ccccc2)[C@H](O)CCc2ccccc2C(=O)NC(C)(C)C)c(Br)c1 [Example 001225] | 0.1 to 10 µM
46 | Cc1cc(C(=O)N[C@@H](Cc2ccccc2)[C@H](O)CCc2ccccc2C(=O)NC(C)(C)C)cc(C)c1OCC(=O)O [Example 001278] | 0.1 to 10 µM
47 | Cc1ccc(C)c(OCC(=O)N[C@@H](Cc2ccccc2)[C@H](O)CCc2ccccc2C(=O)NC(C)(C)C)c1C [Example 001201] | < 0.1 µM
48 | COc1ccc(C(=O)c2ccccc2C(=O)N[C@@H](Cc2ccccc2)[C@H](O)CCc2ccccc2C(=O)NC(C)(C)C)c(O)c1 [Example 001034] | 0.1 to 10 µM
49 | CC(C)(C)NC(=O)c1ccccc1CC[C@@H](O)[C@H](Cc1ccccc1)NS(=O)(=O)c1ccc(C#N)cc1 [Example 000876] | 0.1 to 10 µM
50 | CC(C)(C)NC(=O)c1ccccc1CC[C@@H](O)[C@H](Cc1ccccc1)NC(=O)N(c1ccccc1)c1ccccc1 [Example 001006] | 0.1 to 10 µM
51 | CC(C)(C)NC(=O)c1ccccc1CC[C@@H](O)[C@H](Cc1ccccc1)NC(=S)Oc1ccc(F)cc1 [Example 001017] | > 10 µM
52 | CC(C)(C)NC(=O)c1ccccc1CC[C@@H](O)[C@H](Cc1ccccc1)NS(=O)(=O)c1cccs1 [Example 000880] | 0.1 to 10 µM
